Experimental data from patent US20250268816A1, “EXTENDED-RELEASE FORMULATION CONTAINING CRESOL” (UNIVERSITY OF MARYLAND, BALTIMORE, priority 2022, published 2025).
Read-outs that look alike come from different tables or passages of the source. Values belong to the molecule of their own block, whether it stands above or below them.

Columns and labels:
[1] = in vivo; cited from earlier work
[2] = Drug release study from the in situ gelling system (ISFGSs); type: physicochemical
Procedure: FIG. 29 is a graph showing the results of a dexamethasone release study using 6 wt % Dex and 24 wt % Polymer 80 μL.
FIGS. 30A and 30B are graphs showing the effect of polymer composition on the cumulative release of remdesivir from ISFGSs; 3 wt % 80 and 160 uL-24 wt %.
FIGS. 31A and 31B are graphs showing the effect of polymer composition on the cumulative release of GS-441524 from 80 μL of ISFGSs.
FIGS. 32A and 32B are graphs showing the effect of polymer composition on the cumulative release of GS-441524 from 160 μL of ISFGSs.
FIG. 33A and FIG. 33B are a set of graphs showing the effect of polymer composition and solution volume on the cumulative release of artemisinin from ISFGSs.
FIGS. 37A and 37B are graphs showing the cumulative release of gilteritinib from ISFGSs: Gilteritinib 4 wt % Release 80 μL PLGA 50/50 depots.

[3] = In vitro cumulative release of insulin from ISFGSs; type: physicochemical; details: for time of continuous insulin release: from ISFGSs
From the text: The effect of formulation volume in vitro was also studied.

diabetic rats = assay: Blood glucose level lowering after subcutaneous injection in diabetic rats; type: in vivo; details: subcutaneously injected insulin, 5 IU, within 4 h after the injection
From the text: The effect of subcutaneously injected insulin as the therapeutic agent component of the subject drug delivery system on diabetic rats was also studied. More specifically, the effect of an insulin depot prepared and delivered in accordance with the teachings of the subject invention on the cumulative release of insulin was studied.

[4] = ART838 release study from ISFGSs into PBS; type: physicochemical
From the text: ISFGS turbidity increased with time and with ART838 loading content, and all loaded ISDs […]. The diffusion of the solvents from the depot in the first week was not sufficient for ART838 to diffuse out of the ISFGS due to the hydrophobic interactions between ART838 and PLGA/PLA polymers. The ISFGS system is able to continually release ART838 for 1 month and the ISD form can be tuned to control ART838 release profiles.
This delayed release profile might be beneficial to potentiate antitumor responses initiated by other drug agents. Therefore it is contemplated that the polymeric formulations of the ISFGS system can be altered to tune the ART838 release curve, aiming to modulate the initiation of release while maintaining the stable release observed here. In addition, the ISFGSs can be used with other dimeric ART analogs or other drug compounds, both for administration and for research purposes, for example to analyze cytotoxicity and bioeffects of the loaded ISFGSs using in vitro cell culture models.

[5] = in mice; cited from earlier work
[6] = human patients; cited from earlier work
[7] = system: feline infectious peritonitis (FIP); details: cited from earlier work

Molecule: CCC(CC)COC(=O)[C@H](C)N[P@](=O)(OC[C@H]1O[C@@](C#N)(c2ccc3c(N)ncnn23)[C@H](O)[C@@H]1O)Oc1ccccc1 [Remdesivir]
half-life [1]: 53.4 min

release from the in situ gelling system (in words) [2]: sustained release
Molecule: C[C@@H]1CC[C@H]2[C@@H](C)C(=O)O[C@@H]3O[C@@]4(C)CC[C@@H]1[C@]32OO4 [artemisinin]

Molecule: insulin
time of continuous insulin release [3]: 7 days
blood glucose level (diabetic rats): about 100 mg·dL^−1
half-life [1]: 4 to 6 min

Molecule: C[C@@H]1CCC2[C@@H](C)[C@@H](CC(COP(=O)(Oc3ccccc3)Oc3ccccc3)C[C@H]3O[C@@H]4O[C@@]5(C)CCC6[C@H](C)CCC([C@H]3C)[C@]64OO5)O[C@@H]3O[C@@]4(C)CCC1[C@@]23OO4 (stereo partly drawn) [ART838]
time of continual ART838 release from the ISFGS system [4]: 1 month
half-life [5]: 191 min

release from the in situ gelling system (in words) [2]: sustained release
Molecule: N#C[C@@]1(c2ccc3c(N)ncnn23)O[C@H](CO)[C@@H](O)[C@H]1O [GS-441524]
half-life [6]: around 24 hours
activity against FIP in cell culture (in words) [7]: equivalent

Molecule: Degludec
relative insulin release rate (in words) ([3]; comparison between ISFGS formulations): slower
time of continuous insulin release [3]: 7 days
